Test results reported in patent publication US20170246190A1, “METHODS AND FORMULATION FOR IMPROVING ORAL AVAILABILITY OF CPT-11 WHILE REDUCING CPT-11 INDUCED GASTROINTESTINAL TOXICITY IN CANCER THERAPY” (Johnpro Biotech Inc., priority 2014, published 2017).
Where a name gives a salt, the structure may show the parent alone.

Key:
[1] = test system: NOD/SCID mice; experiment: Bloody diarrhea evaluation by daily naked-eye observation; format: in vivo; settings: oral CPT-11 50 mg/Kg and/or silychristin 10 mg/Kg
Experimental: (§1) To inoculate tumor, HT29 cells (1×10^6 cells per injection) were injected subcutaneously to lab animals to generate s.c. tumors on day 1, which were allowed to grow to about 5 mm in diameter. Two sets of experiments were conducted.
(§2) In the first set of experiment, effects of silymarin on the reduction of CPT-11 induced bloody stool were investigated. […] At the end of the experiments, the animals were sacrificed and colon tissues from each animals were stained and used in histological analysis.

[2] = target: T1, human βG (hβG) (Homo sapiens, UniProt P08236); experiment: Beta-glucuronidase activity with fluorogenic substrate MUG, human enzyme; format: biochemical; settings: 8 μM; FIG. 3B
T1 sequence (P08236 23-651): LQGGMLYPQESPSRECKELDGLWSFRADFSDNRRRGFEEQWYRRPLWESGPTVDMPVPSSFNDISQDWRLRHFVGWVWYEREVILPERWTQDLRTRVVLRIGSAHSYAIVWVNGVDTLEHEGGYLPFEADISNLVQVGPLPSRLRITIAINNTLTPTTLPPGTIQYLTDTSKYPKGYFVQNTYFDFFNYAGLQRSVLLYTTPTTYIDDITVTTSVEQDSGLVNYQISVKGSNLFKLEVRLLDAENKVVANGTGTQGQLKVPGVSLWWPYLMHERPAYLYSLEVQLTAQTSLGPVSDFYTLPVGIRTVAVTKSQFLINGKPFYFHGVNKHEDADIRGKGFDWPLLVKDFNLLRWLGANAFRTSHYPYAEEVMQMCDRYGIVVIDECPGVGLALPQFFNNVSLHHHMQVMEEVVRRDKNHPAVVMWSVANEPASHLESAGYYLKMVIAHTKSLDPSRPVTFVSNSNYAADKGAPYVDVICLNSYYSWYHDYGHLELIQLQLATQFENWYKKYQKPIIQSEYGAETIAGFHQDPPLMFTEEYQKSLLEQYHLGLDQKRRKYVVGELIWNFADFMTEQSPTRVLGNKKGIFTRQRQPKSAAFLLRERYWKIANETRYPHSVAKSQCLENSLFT
Experimental: (§3) The βG activity in solution was determined with the fluorogenic substrate 4-methylumbellifery β-D-glucuronide (MUG), in which the non-fluorescent MUG would give rise to glucuronic acid and a highly fluorescent product, 4-methylumbelliferone (4-MU), at higher pH, after being converted by βG. The reaction can be quenched by the addition of a basic solution of sodium carbonate, and pH may be adjusted to quantitate the fluorescent signals. […] After 10 minutes, the assays were quenched at 15 second intervals by adding 1.9 ml of the carbonate stopping buffer. The samples were subject to fluorescence measurement, and the data was converted to nmol MUG hydrolyzed as an indication of GUS enzyme activity.
(§4) Silymarin is known to be a mixture of flavonolignans extracted from blessed milk thistle (Silybum marianum). […] Results are illustrated in FIGS. 3A and 3B.

[3] = test system: normal cells HEK-293; experiment: Cell viability assay (MTS) on normal cells; format: cell-based, human; settings: 100 μM; FIG. 4
Experimental: Cell line used in the present disclosure were human colon carcinoma cell line HT29, and human embryonic kidney cell line HEK-293. HT29 cells were cultured and maintained in Dulbecco's modified Eagle media (DMEM) supplemented with 10% heat inactivated fetal bovine serum (FBS), 50 units/mL penicillin G, 50 μg/mL streptomycin (pH 7.4), while HEK-293 cells were cultured in complete SFMII growth medium supplemented with 4mM L-glutamine. Both cell lines were maintained in humidified environment comprising 5% CO2/95% air at 37° C.
Cell were cultured at a density of 1.0×10^5 cells/well in 96-well round-bottom plates (Falcon, UK) containing 200 μL of culturing medium. Cells were maintained for two days at 37° C. in a humidified, 5% CO2 atmosphere. The proliferation rate of the cells was determined by MTS assay (CellTiter 96 aqueous one-solution cell proliferation assay; Promega, Wis., USA). Forty microliters of CellTiter 96 aqueous one-solution were added to each well. After incubation for 4hrs, the UV absorbance of the solution was measured at a wavelength of 490 nm. All MTS assays were performed in triplicate.

[4] = target: E. Coli βG (eβG) (Escherichia coli, UniProt P05804); experiment: Beta-glucuronidase activity with fluorogenic substrate MUG, E. Coli enzyme; format: biochemical; settings: FIG. 3A
Experimental: as §3, §4

[5] = test system: NOD/SCID mice; experiment: Histological analysis (H&E) of colon tissues after oral CPT-11 treatment; format: in vivo; settings: oral CPT-11 50 mg/Kg, with or without silychristin 10 mg/Kg; FIG. 2
Experimental: as §1, §2

[6] = Oral availability of CPT-11: blood levels of CPT-11 and SN-38 by HPLC in mice bearing HT29 xenograft tumors; format: in vivo, NOD/SCID mice; settings: oral CPT-11 40 mg/Kg alone, 4 hrs after ingestion, FIG. 1A
Experimental: as §1
In the second set of experiment, oral availability of CPT-11 was evaluated. The animals were randomly assigned to 3 groups, in which animals in group 1 (N=5) were on normal diet; animals in group 2 (N=5) received oral CPT-11 treatment (40 mg/Kg), and animals in group 3 (N=5) received a dose of dose of UDCA (20 mg/Kg) on day 1, an hour later, one dose of CPT-11 (40 mg/Kg) and one dose of silymarin (100 mg/Kg) were given. Blood samples were respectively taken at 1, 4, 8 hrs after the combined treatment of CPT-11 and on days 4, and 8; and the level of SN-38 (i.e., an active metabolite of CPT-11) was measured by HPLC. The body weight (BW) of each animal was measured daily.
The animals bearing xenografted s.c. colon tumors were randomly assigned into 3 groups, in which group 1 received no treatment, group 2 received one dose of oral treatment of CPT-11 (40 mg/Kg), and group 3 received UDCA (20 mg/Kg), CPT-11 (40 mg/Kg) and silymarin (100 mg/Kg) via oral ingestion in accordance with procedures described in the “Materials and methods” section. […]

E. Coli βG (eβG), sequence (P05804 whole entry): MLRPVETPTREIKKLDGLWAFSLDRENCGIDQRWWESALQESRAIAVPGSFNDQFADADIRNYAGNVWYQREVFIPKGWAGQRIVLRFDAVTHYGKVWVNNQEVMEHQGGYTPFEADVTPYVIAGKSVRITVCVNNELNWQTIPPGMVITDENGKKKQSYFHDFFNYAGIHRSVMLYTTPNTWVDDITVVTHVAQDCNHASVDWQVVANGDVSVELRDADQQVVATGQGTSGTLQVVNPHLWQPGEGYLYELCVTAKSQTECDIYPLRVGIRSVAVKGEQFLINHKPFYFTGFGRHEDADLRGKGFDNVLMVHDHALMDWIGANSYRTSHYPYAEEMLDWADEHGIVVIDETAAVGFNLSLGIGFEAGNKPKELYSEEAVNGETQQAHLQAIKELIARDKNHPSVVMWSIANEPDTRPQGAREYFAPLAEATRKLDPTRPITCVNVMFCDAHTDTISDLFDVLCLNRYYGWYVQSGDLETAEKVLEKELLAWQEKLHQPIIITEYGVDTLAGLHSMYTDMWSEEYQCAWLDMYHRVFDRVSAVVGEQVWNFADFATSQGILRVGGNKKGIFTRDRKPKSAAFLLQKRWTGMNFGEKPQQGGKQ

Compound | number of animals that exhibited bloody stool / bloody diarrhea [1] | effect on the activity of hβG [2] | effect on normal cells' activities (viability of HEK-293) [3] | inhibition of eβG activity ([4]; 8 μM) [%] | eβG activity ([4]; 40 μM) | colon tissue damage (morphology and integrity of epithelial cells), H&E histology [5] | blood level of CPT-11 [6]
COc1cc([C@@H]2Oc3c(O)cc([C@H]4Oc5cc(O)cc(O)c5C(=O)[C@@H]4O)cc3[C@H]2CO)ccc1O [silychristin] | none | without affecting | did not adversely affect | ~80 | negligible level | – | –
CCc1c2c(nc3ccc(OC(=O)N4CCC(N5CCCCC5)CC4)cc13)-c1cc3c(c(=O)n1C2)COC(=O)[C@]3(O)CC [CPT-11, Irinotecan hydrochloride] | 4 animals | – | – | – | – | severe damage | undetectable level
